Data taken from PubChem BioAssay (NCI).
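At the GI50, growth is halved. TGI: total growth inhibition.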

Key:
Assay in all cases: NCI-60 cell line screen, 384-well format
HCT-116 colon = system: HCT-116 colon
HOP-62 NSCLC = system: HOP-62 NSCLC
SK-MEL-28 melanoma = system: SK-MEL-28 melanoma
MALME-3M melanoma = system: MALME-3M melanoma
COLO 205 colon = system: COLO 205 colon
SF-295 CNS = system: SF-295 CNS
PC-3 prostate = system: PC-3 prostate
MOLT-4 leukemia = system: MOLT-4 leukemia
NCI-H322M lung = system: NCI-H322M lung
UACC-257 melanoma = system: UACC-257 melanoma
ACHN renal = system: ACHN renal
MDA-MB-435 melanoma = system: MDA-MB-435 melanoma
UACC-62 melanoma = system: UACC-62 melanoma
OVCAR-5 ovarian = system: OVCAR-5 ovarian
NCI-H23 lung = system: NCI-H23 lung
SK-MEL-5 melanoma = system: SK-MEL-5 melanoma
SF-539 CNS = system: SF-539 CNS
SNB-75 CNS = system: SNB-75 CNS
LOX IMVI melanoma = system: LOX IMVI melanoma
HCC-2998 colon = system: HCC-2998 colon
NCI-H226 lung = system: NCI-H226 lung
OVCAR-3 ovarian = system: OVCAR-3 ovarian
SNB-19 CNS = system: SNB-19 CNS
A549 NSCLC = system: A549 NSCLC
IGROV1 ovarian = system: IGROV1 ovarian
M14 melanoma = system: M14 melanoma
U251 glioblastoma = system: U251 glioblastoma
OVCAR-4 ovarian = system: OVCAR-4 ovarian
BT-549 breast = system: BT-549 breast
NCI-H522 lung = system: NCI-H522 lung
HCT-15 colon = system: HCT-15 colon
SR leukemia = system: SR leukemia
MDA-MB-468 breast = system: MDA-MB-468 breast
MCF7 breast = system: MCF7 breast
DU-145 prostate = system: DU-145 prostate
RPMI-8226 leukemia = system: RPMI-8226 leukemia
NCI/ADR-RES ovarian = system: NCI/ADR-RES ovarian
A498 renal = system: A498 renal
KM12 colon = system: KM12 colon
NCI-H460 NSCLC = system: NCI-H460 NSCLC
HOP-92 NSCLC = system: HOP-92 NSCLC
SF-268 CNS = system: SF-268 CNS
SN12C renal = system: SN12C renal
RXF 393 renal = system: RXF 393 renal
EKVX NSCLC = system: EKVX NSCLC
HL-60(TB) leukemia = system: HL-60(TB) leukemia
MDA-MB-231 breast = system: MDA-MB-231 breast
TK-10 renal = system: TK-10 renal
T-47D breast = system: T-47D breast

For CCNC(=O)C[C@@H]1N=C(c2ccc(Cl)cc2)c2cc(OC)ccc2-n2c(C)nnc21, the GI50 (HCT-116 colon) was 4.23 µM, the TGI (HCT-116 colon) was over 100 µM and the GI50 (HOP-62 NSCLC) was 0.246 µM. It also gave a TGI (HOP-62 NSCLC) of 13.8 µM, a GI50 (SK-MEL-28 melanoma) of 14.1 µM and a TGI (SK-MEL-28 melanoma) of over 100 µM. It also gave a GI50 (MALME-3M melanoma) of 12.3 µM, a TGI (MALME-3M melanoma) of 65.9 µM and a GI50 (COLO 205 colon) of 0.496 µM. It also gave a TGI (COLO 205 colon) of 15.6 µM, a GI50 (SF-295 CNS) of 21.6 µM and a TGI (SF-295 CNS) of over 100 µM. For the same molecule, the GI50 (PC-3 prostate) was 0.714 µM, the TGI (PC-3 prostate) was over 100 µM and the GI50 (MOLT-4 leukemia) was 0.599 µM. It also gave a TGI (MOLT-4 leukemia) of 15.7 µM, a GI50 (NCI-H322M lung) of 0.62 µM and a TGI (NCI-H322M lung) of 34.6 µM. For the same molecule, the GI50 (UACC-257 melanoma) was 0.423 µM, the TGI (UACC-257 melanoma) was 30.3 µM and the GI50 (ACHN renal) was 3.55 µM. For the same molecule, the TGI (ACHN renal) was over 100 µM, the GI50 (MDA-MB-435 melanoma) was 8.67 µM and the TGI (MDA-MB-435 melanoma) was 77.6 µM. The GI50 (UACC-62 melanoma) was under 0.01 µM, the TGI (UACC-62 melanoma) was over 100 µM and the GI50 (OVCAR-5 ovarian) was 0.296 µM. For the same molecule, the TGI (OVCAR-5 ovarian) was 18.7 µM, the GI50 (NCI-H23 lung) was 2.77 µM and the TGI (NCI-H23 lung) was over 100 µM. The GI50 (SK-MEL-5 melanoma) was 0.492 µM, the TGI (SK-MEL-5 melanoma) was 18.2 µM and the GI50 (SF-539 CNS) was 2.25 µM. It also gave a TGI (SF-539 CNS) of over 100 µM, a GI50 (SNB-75 CNS) of 28.3 µM and a TGI (SNB-75 CNS) of over 100 µM. For the same molecule, the GI50 (LOX IMVI melanoma) was 0.196 µM, the TGI (LOX IMVI melanoma) was 0.551 µM and the GI50 (HCC-2998 colon) was 0.0861 µM. It also gave a TGI (HCC-2998 colon) of 10.8 µM, a GI50 (NCI-H226 lung) of 1.63 µM and a TGI (NCI-H226 lung) of 27.7 µM. For the same molecule, the GI50 (OVCAR-3 ovarian) was 0.324 µM, the TGI (OVCAR-3 ovarian) was 14.8 µM and the GI50 (SNB-19 CNS) was 1.63 µM. For the same molecule, the TGI (SNB-19 CNS) was over 100 µM, the GI50 (A549 NSCLC) was 7.42 µM and the TGI (A549 NSCLC) was over 100 µM. For the same molecule, the GI50 (IGROV1 ovarian) was 0.394 µM, the TGI (IGROV1 ovarian) was 16.7 µM and the GI50 (M14 melanoma) was 2.35 µM. The TGI (M14 melanoma) was 55.2 µM, the GI50 (U251 glioblastoma) was 9.26 µM and the TGI (U251 glioblastoma) was over 100 µM. It also gave a GI50 (OVCAR-4 ovarian) of 0.137 µM, a TGI (OVCAR-4 ovarian) of 0.899 µM and a GI50 (BT-549 breast) of 0.375 µM. It also gave a TGI (BT-549 breast) of 23.3 µM, a GI50 (NCI-H522 lung) of 0.213 µM and a TGI (NCI-H522 lung) of 5.39 µM. For the same molecule, the GI50 (HCT-15 colon) was 0.613 µM, the TGI (HCT-15 colon) was 15 µM and the GI50 (SR leukemia) was under 0.01 µM. The TGI (SR leukemia) was 58 µM, the GI50 (MDA-MB-468 breast) was 8.18 µM and the TGI (MDA-MB-468 breast) was over 100 µM. The GI50 (MCF7 breast) was under 0.01 µM, the TGI (MCF7 breast) was over 100 µM and the GI50 (DU-145 prostate) was 12.8 µM. It also gave a TGI (DU-145 prostate) of over 100 µM, a GI50 (RPMI-8226 leukemia) of 0.0747 µM and a TGI (RPMI-8226 leukemia) of 0.992 µM. The GI50 (NCI/ADR-RES ovarian) was 11.4 µM, the TGI (NCI/ADR-RES ovarian) was 36.2 µM and the GI50 (A498 renal) was 0.662 µM. For the same molecule, the TGI (A498 renal) was 81.7 µM, the GI50 (KM12 colon) was 5.56 µM and the TGI (KM12 colon) was over 100 µM. It also gave a GI50 (NCI-H460 NSCLC) of 4.05 µM, a TGI (NCI-H460 NSCLC) of over 100 µM and a GI50 (HOP-92 NSCLC) of 26.4 µM. For the same molecule, the TGI (HOP-92 NSCLC) was over 100 µM, the GI50 (SF-268 CNS) was 22.5 µM and the TGI (SF-268 CNS) was over 100 µM. It also gave a GI50 (SN12C renal) of 0.742 µM, a TGI (SN12C renal) of over 100 µM and a GI50 (RXF 393 renal) of 26 µM. The TGI (RXF 393 renal) was over 100 µM, the GI50 (EKVX NSCLC) was 25.4 µM and the TGI (EKVX NSCLC) was over 100 µM. The GI50 (HL-60(TB) leukemia) was 0.0257 µM, the TGI (HL-60(TB) leukemia) was 0.131 µM and the GI50 (MDA-MB-231 breast) was 5.87 µM. It also gave a TGI (MDA-MB-231 breast) of over 100 µM, a GI50 (TK-10 renal) of 0.48 µM and a TGI (TK-10 renal) of 28.6 µM. The GI50 (T-47D breast) was 15.4 µM and the TGI (T-47D breast) was over 100 µM.
